Several values for one entry are separate records, joined by “and”; a condition that tells them apart may be missing. Identical values can stand only once.
How the values were obtained:
[1] = molecular target: T1, human PPARγ- LBD (Homo sapiens, UniProt P37231); assay: Lanthascreen TR-FRET PPARγ competitive binding assay; conditions: for IC50: Lanthascreen TR-FRET competitive binding; for Raw Data / Raw Data - Background: TR-FRET
T1 construct: a mixture of a human PPARγ- LBD labelled with glutathione S-transferase (GST)
T1 sequence (P37231 238-503 limits assumed): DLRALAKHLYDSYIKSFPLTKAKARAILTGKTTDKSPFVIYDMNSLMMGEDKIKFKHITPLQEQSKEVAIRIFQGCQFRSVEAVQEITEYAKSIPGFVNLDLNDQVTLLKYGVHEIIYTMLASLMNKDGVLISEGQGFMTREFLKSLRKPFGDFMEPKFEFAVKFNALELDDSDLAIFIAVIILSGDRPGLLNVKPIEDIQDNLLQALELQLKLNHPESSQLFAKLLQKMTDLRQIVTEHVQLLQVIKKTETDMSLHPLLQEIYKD
Procedure: Using the Lanthasreen TR-FRET assay, the synthesized compounds were first preliminary tested for the PPARγ binding affinity. […] A chemical under test displaces the tracer from PPAR-LBD, which lowers the TR-FRET ratio and decreases the FRET signal Figure 8 [33].
A multimode low-volume proxy plate reader was used to read the plates after one hour of incubation. Then, a mixture of a human PPARγ- LBD labelled with glutathione S-transferase (GST), a fluorescent small pan-PPAR ligand (FluormoneTM Pan-PPAR Green), and terbium-labeled anti-GST antibody was added.

[2] = molecular target: egg albumin (Gallus gallus, UniProt P01012); assay: Albumin denaturation assay; format: biochemical, hen; conditions: mean ± SD (n = 3), read-out: Percentage inhibition of denaturation of albumin
Chain of egg albumin (P01012 2-386): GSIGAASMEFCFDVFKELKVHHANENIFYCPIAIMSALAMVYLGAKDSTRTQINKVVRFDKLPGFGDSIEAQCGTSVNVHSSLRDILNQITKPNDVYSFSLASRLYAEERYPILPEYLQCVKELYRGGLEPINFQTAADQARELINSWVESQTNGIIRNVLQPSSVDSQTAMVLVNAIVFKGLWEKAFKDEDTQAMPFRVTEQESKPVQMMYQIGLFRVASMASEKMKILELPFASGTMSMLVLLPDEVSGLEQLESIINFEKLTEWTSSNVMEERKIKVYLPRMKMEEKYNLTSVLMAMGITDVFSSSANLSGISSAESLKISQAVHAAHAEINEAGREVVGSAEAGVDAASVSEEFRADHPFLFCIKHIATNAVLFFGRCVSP
Procedure: Inflammation is accompanied by protein denaturation. Tissue protein denaturation is a well-established cause of Inflammatory illnesses. Inflammatory disorders including rheumatoid arthritis, diabetes, and cancer have been linked to the denaturation of proteins. The ability of a substance to stop proteins from becoming denaturized has a role in the prevention of inflammatory disorders. […] Denaturation of proteins is accomplished by keeping the reaction mixture in a water bath at 70 °C for […].
Minor modifications were made to Mizushima and Kobayashi’s and Sakat et al. methodologies. The reaction mixture containing 0.2 mL of egg albumin (from a fresh hen’s egg) is mixed with 2.8 mL of phosphate-buffered saline (PBS, pH 6.4) and 2 mL of synthesized compounds in varying concentrations. The mixture was then heated at 70 °C for 5 min after being incubated at 37 °C for approximately 15–20 min. After cooling, their absorbance was measured at 660 nm spectrometrically. Three duplicates of the experiment were carried out. […] Percentage inhibition = (OD control − OD sample/OD control) × 100

[3] = tested on: human red blood cells (HRBC); assay: HRBC membrane stabilization method; conditions: for HRBC membrane stabilization (percentage protection against HRBC lysis): mean ± SD (n = 3); for IC50: Homo sapiens, Erythrocyte, read-out: IC50 Values, HRBC membrane stabilization method
Procedure: The principle of this procedure is to stabilize the membrane of human red blood cells by hypotonic membrane lysis. […] Lysosomal enzyme levels typically decrease as the HRBC membrane is stabilized.
The packed cells in this blood solution were separated after centrifugation at 3000 rpm [41]. The packed cells were cleaned using an isosaline solution, and then, isosaline was used to prepare a 10% v/v suspension. This HRBC suspension was employed to estimate its anti-inflammatory properties. Different concentrations of the synthesized compounds and the reference standard were each combined with 1 mL of phosphate buffer (pH 7.4), 2 mL of hyposaline, and 0.5 mL of HRBC solution. A total of 2.0 mL of distilled water was utilized as the control. The assay mixtures were all centrifuged at 3000 rpm after 30 min of incubation at 37°C. The following formula was used to determine the percentage of stabilized HRBC membranes. Percentage protection= 100 − (OD sample/OD control) × 100

SMILES	IC50 [1] [µM]	Raw Data ([1]; 0.0000512 µM) [RLU]	Raw Data - Background ([1]; 0.0000512 µM) [RLU]	Raw Data ([1]; 0.000256 µM) [RLU]	Raw Data - Background ([1]; 0.000256 µM) [RLU]	inhibition at 6.25 µM [2] [%]	inhibition at 12.5 µM [2] [%]	inhibition at 25 µM [2] [%]	inhibition at 50 µM [2] [%]	inhibition at 100 µM [2] [%]	inhibition at 200 µM [2] [%]	inhibition at 400 µM [2] [%]	HRBC membrane stabilization (percentage protection against HRBC lysis) ([3]; 6.25 µM) [%]	HRBC membrane stabilization (percentage protection against HRBC lysis) ([3]; 12.5 µM) [%]	HRBC membrane stabilization (percentage protection against HRBC lysis) ([3]; 25 µM) [%]	HRBC membrane stabilization (percentage protection against HRBC lysis) ([3]; 50 µM) [%]	HRBC membrane stabilization (percentage protection against HRBC lysis) ([3]; 100 µM) [%]	HRBC membrane stabilization (percentage protection against HRBC lysis) ([3]; 200 µM) [%]	HRBC membrane stabilization (percentage protection against HRBC lysis) ([3]; 400 µM) [%]	IC50 [3] [µM]	further results
C=CCc1ccc(OCC(=O)Nc2cccc(Cl)c2)c(OC)c1 [Compound 1e, 2-(4-Allyl-2-methoxyphenoxy)-N-(3-chlorophenyl)acetamide]	11.5	2.087	1.839	1.860	1.610	5.49 ± 0.43	9.47 ± 0.39	15.7 ± 0.24	22.35 ± 0.18	38.61 ± 0.3	48.21 ± 0.18	56.62 ± 0.37	12.36 ± 0.48	19.68 ± 0.38	34.50 ± 0.36	42.00 ± 0.56	51.04 ± 0.46	66.05 ± 0.36	75.09 ± 0.36	58.1	Raw Data ([1]; 0.00128 µM): 1.903 RLU; Raw Data - Background ([1]; 0.00128 µM): 1.678 RLU; Raw Data ([1]; 0.0064 µM): 1.927 RLU; Raw Data - Background ([1]; 0.0064 µM): 1.692 RLU; Raw Data ([1]; 0.032 µM): 1.988 RLU; Raw Data - Background ([1]; 0.032 µM): 1.752 RLU; Raw Data ([1]; 0.16 µM): 1.922 RLU; Raw Data - Background ([1]; 0.16 µM): 1.688 RLU; Raw Data ([1]; 0.8 µM): 1.820 RLU; Raw Data - Background ([1]; 0.8 µM): 1.683 RLU; Raw Data ([1]; 4 µM): 1.752 RLU; Raw Data - Background ([1]; 4 µM): 1.522 RLU; Raw Data ([1]; 20 µM): 1.018 RLU; Raw Data - Background ([1]; 20 µM): 0.721 RLU; Raw Data ([1]; 100 µM): 0.834 RLU; Raw Data - Background ([1]; 100 µM): 0.586 RLU
C=CCc1ccc(OCC(=O)Nc2ccc([N+](=O)[O-])cc2)c(OC)c1 [Compound 1b, 2-(4-Allyl-2-methoxyphenoxy)-N-(4-nitrophenyl)acetamide]	42.4	2.014	1.767	1.849	1.755	2.06 ± 0.17	4.44 ± 0.36	8.42 ± 0.24	13.4 ± 0.24	17.6 ± 0.18	21.2 ± 0.3	32.2 ± 0.4	3.19 ± 0.28	9.10 ± 0.28	15.55 ± 0.28	27.49 ± 0.36	36.16 ± 0.48	45.07 ± 0.28	58.36 ± 0.28	83.2	Raw Data ([1]; 0.00128 µM): 1.865 RLU; Raw Data - Background ([1]; 0.00128 µM): 1.732 RLU; Raw Data ([1]; 0.0064 µM): 1.857 RLU; Raw Data - Background ([1]; 0.0064 µM): 1.671 RLU; Raw Data ([1]; 0.032 µM): 1.859 RLU; Raw Data - Background ([1]; 0.032 µM): 1.568 RLU; Raw Data ([1]; 0.16 µM): 1.896 RLU; Raw Data - Background ([1]; 0.16 µM): 1.724 RLU; Raw Data ([1]; 0.8 µM): 2.012 RLU; Raw Data - Background ([1]; 0.8 µM): 1.756 RLU; Raw Data ([1]; 4 µM): 1.779 RLU; Raw Data - Background ([1]; 4 µM): 1.596 RLU; Raw Data ([1]; 20 µM): 1.199 RLU; Raw Data - Background ([1]; 20 µM): 1.025 RLU; Raw Data ([1]; 100 µM): 0.421 RLU; Raw Data - Background ([1]; 100 µM): 0.2685 RLU
C=CCc1ccc(OCC(=O)Nc2ccccc2Cl)c(OC)c1 [Compound 1f, 2-(4-Allyl-2-methoxyphenoxy)-N-(2-chlorophenyl)acetamide]	5.15	1.795	2.02	1.801	2.04	7.74 ± 0.34	13.6 ± 0.23	24.4 ± 0.48	31 ± 0.55	43.08 ± 0.43	50	62.41 ± 0.42	15.17 ± 0.64	25.09 ± 0.66	41.88 ± 0.55	49.50 ± 0.46	58.61 ± 0.38	73.43 ± 0.36	85.79 ± 0.18	55	Raw Data ([1]; 0.00128 µM): 1.764 RLU; Raw Data - Background ([1]; 0.00128 µM): 2 RLU; Raw Data ([1]; 0.0064 µM): 1.826 RLU; Raw Data - Background ([1]; 0.0064 µM): 2.061 RLU; Raw Data ([1]; 0.032 µM): 1.766 RLU; Raw Data - Background ([1]; 0.032 µM): 1.99 RLU; Raw Data ([1]; 0.16 µM): 1.711 RLU; Raw Data - Background ([1]; 0.16 µM): 1.945 RLU; Raw Data ([1]; 0.8 µM): 1.881 RLU; Raw Data - Background ([1]; 0.8 µM): 2.056 RLU; Raw Data ([1]; 4 µM): 1.247 RLU; Raw Data - Background ([1]; 4 µM): 1.542 RLU; Raw Data ([1]; 20 µM): 0.799 RLU; Raw Data - Background ([1]; 20 µM): 0.862 RLU; Raw Data ([1]; 100 µM): 0.7757 RLU; Raw Data - Background ([1]; 100 µM): 0.9427 RLU
C=CCc1ccc(OCC(=O)Nc2cccc(C(F)(F)F)c2)c(OC)c1 [Compound 1d, 2-(4-Allyl-2-methoxyphenoxy)-N-[(3-trifluoromethyl)phenyl]acetamide]	6.47	2.02	1.876	2.04	1.881	4.21 ± 0.37	8.79 ± 0.32	14 ± 0.31	18.8 ± 0.39	32.46 ± 0.32	38.49 ± 0.37	49.09 ± 0.18	8.85 ± 0.36	17.77 ± 0.46	28.72 ± 0.46	34.74 ± 0.56	45.51 ± 0.28	56.45 ± 0.31	67.40 ± 0.28	66.3	Raw Data ([1]; 0.00128 µM): 2 RLU; Raw Data - Background ([1]; 0.00128 µM): 1.79 RLU; Raw Data ([1]; 0.0064 µM): 2.061 RLU; Raw Data - Background ([1]; 0.0064 µM): 1.836 RLU; Raw Data ([1]; 0.032 µM): 1.99 RLU; Raw Data - Background ([1]; 0.032 µM): 1.875 RLU; Raw Data ([1]; 0.16 µM): 1.945 RLU; Raw Data - Background ([1]; 0.16 µM): 1.78 RLU; Raw Data ([1]; 0.8 µM): 2.018 RLU; Raw Data - Background ([1]; 0.8 µM): 1.89 RLU; Raw Data ([1]; 4 µM): 1.542 RLU; Raw Data - Background ([1]; 4 µM): 1.307 RLU; Raw Data ([1]; 20 µM): 0.593 RLU; Raw Data - Background ([1]; 20 µM): 0.497 RLU; Raw Data ([1]; 100 µM): 0.6527 RLU; Raw Data - Background ([1]; 100 µM): 0.4876 RLU
O=C(O)Cc1ccccc1Nc1c(Cl)cccc1Cl [Standard Diclofenac, Diclofenac, reference compound]	–	–	–	–	–	10.2 ± 0.55	15.3 ± 0.43	28.2 ± 0.61	38.93 ± 0.37	49.5 ± 0.51	60.29 ± 0.36	68.54 ± 0.43	15.99 ± 0.64	26.93 ± 0.55	43.54 ± 0.48	52.58 ± 0.48	62.30 ± 0.59	76.87 ± 0.64	90.77 ± 0.36	48.1	HRBC membrane stabilization (percentage protection against HRBC lysis) ([3]; 400 µM, listed as diclofenac sodium): 90.77% and 90%
